Measured values published in patent US8258138B2, “Potassium channel blockers” (Xention Limited, priority 2008, dated 2012).

Columns and labels:
hKv1.5 = hKv1.5 (Homo sapiens, UniProt P22460); assay: Kv1.5 Autopatch electrophysiology (whole cell patch-clamp); assay type: cell-based; conditions: compound at 1 μM; room temperature (22-24° C.); total charge during step to 0 mV; read-out: hKv1.5 % inh.
Experimental: Kv1.5 Autopatch Electrophysiology Method
The external bathing solution contained (in mM): 150 NaCl, 10 KCl, […], 3 MgCl2, 1 CaCl2, 10 HEPES, pH 7.4. Patch pipettes were filled with an electrode solution of composition (in mM): 160 KCl, 0.5 MgCl2, 10 HEPES, 1 EGTA, pH 7.4 with KOH.
Compounds were dissolved in DMSO (100%) and made up in the external bather at a concentration of 1 μM. All experiments were conducted at room temperature (22-24° C.).
A cell suspension (10 ml), with a density of 100,000 cells/ml, was aliquoted into a 15 ml centrifuge tube and transferred to an incubator (37° C., 5% CO2) for approximately one hour before use. Following 60 min incubation, a tube was taken and centrifuged at 1000 rpm for 4 mins at room temperature. 9.5 ml supernatant was thence discarded, leaving a cell pellet at the bottom of the tube. The pellet was then resuspended using 100 μl of cold (4° C.), filtered (0.22 μm), 0.2% BSA/bather solution (0.02 g BSA/10 ml bather). The bottom of the tube was manually agitated gently until the solution became cloudy with cells. The 100 μl cell resuspension solution was then stored on the bench at 4° C. (using a Peltier-based temperature control device) until used.
A length of capillary glass (1B150F-4, WPI) was dipped into the cell suspension solution, such that ˜3 cm column of fluid was taken up by capillary action. A Ag/AgCl wire was dropped into the non-dipped end of the capillary also. The outside of the solution-filled end of the capillary was then dried and the capillary was loaded into the AutoPatch™.
Borosilicate glass patch pipettes (from 1.5 mm OD, thin-walled filamented, GC150-TF capillary glass, Harvard) were pulled using a DMZ pipette puller (Zeitz Instruments), and were back-filled using the internal pipette solution, being careful that no bubbles remain at the tip or in the body of the pipette. Patch pipettes typically had resistances of 2.3-3.5 MΩ. Once filled, the pipette tip and a proportion of the shaft (˜15 mm) were dipped into Sigmacote (Sigma). The recording pipette was then loaded into the AutoPatch™ Automated patch-clamping was initiated by the operator, but thereafter AutoPatch.exe continued the experiment providing that pre-set conditions and criteria were satisfied.
Whole cell patch-clamp recordings were made using the AutoPatch™ rig, which incorporated an EPC9 amplifier (HEKA, Germany) under control of Pulse software (v8.54, HEKA, Germany), a motion controller with 2 translators (Newport, UK), valve controller (VF1) and a c-level suction device all at room temperature (22-24° C.). This equipment was completely under the control of AutoPatch.exe and operator intervention was only made when there was a requirement to refill the drug reservoirs or to prevent the loss of a cell due to a technical error. Cells with an Rseries greater than 18 MΩ were discounted from the experiment.
Qualification stages prior to perfusion and drug application ensured that the observed current met the criteria for the experiment. Only those cells with an IK>500 pA were used for experiments. Cells were continuously perfused with external solution at a flow rate of 1.8-2 ml/minute. […] Online analysis of the hKv1.5 current during the application of compounds was performed by the AutoPatch™ software. Voltage-step protocols and analysis of data was performed as described for conventional electrophysiology.
Electrophysiology voltage-step protocols and analysis of data was performed as follows. Data was sampled at 5 kHz, and filtered with a −3 dB bandwidth of 2.5 kHz. Cells were held at a voltage of −80 mV. Currents were evoked to a voltage step for 1000 ms in duration at 0 mV every 5 s. Currents were analysed using Pulsefit software (v8.54, HEKA, Germany), with the total charge measured during the whole of the voltage step. All other plots were produced using Igor Pro (WaveMetrics).

human Kv1.3 = target: T1, human Kv1.3 (Homo sapiens, UniProt P22001); assay: Kv1.3 Autopatch electrophysiology (whole cell patch-clamp, inhibition of charge movement); assay type: cell-based; conditions: compound at 1 μM; cells stably transfected with human Kv1.3; room temperature; total charge during step to +30 mV relative to control; read-out: hKv1.3 % inh.
T1 construct: expressed in transfected cells; host or cells: stably transfected cells grown in medium for CHO cells
Outline: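 Whole-cell AutoPatch recordings were made at room temperature from cells held at −80 mV, with 500 ms steps to +30 mV every 15 s. The bath contained 10 mM KCl, pH 7.4, and the pipette K-gluconate/EGTA, pH 7.2.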

Chain of hKv1.5 (P22460 whole entry): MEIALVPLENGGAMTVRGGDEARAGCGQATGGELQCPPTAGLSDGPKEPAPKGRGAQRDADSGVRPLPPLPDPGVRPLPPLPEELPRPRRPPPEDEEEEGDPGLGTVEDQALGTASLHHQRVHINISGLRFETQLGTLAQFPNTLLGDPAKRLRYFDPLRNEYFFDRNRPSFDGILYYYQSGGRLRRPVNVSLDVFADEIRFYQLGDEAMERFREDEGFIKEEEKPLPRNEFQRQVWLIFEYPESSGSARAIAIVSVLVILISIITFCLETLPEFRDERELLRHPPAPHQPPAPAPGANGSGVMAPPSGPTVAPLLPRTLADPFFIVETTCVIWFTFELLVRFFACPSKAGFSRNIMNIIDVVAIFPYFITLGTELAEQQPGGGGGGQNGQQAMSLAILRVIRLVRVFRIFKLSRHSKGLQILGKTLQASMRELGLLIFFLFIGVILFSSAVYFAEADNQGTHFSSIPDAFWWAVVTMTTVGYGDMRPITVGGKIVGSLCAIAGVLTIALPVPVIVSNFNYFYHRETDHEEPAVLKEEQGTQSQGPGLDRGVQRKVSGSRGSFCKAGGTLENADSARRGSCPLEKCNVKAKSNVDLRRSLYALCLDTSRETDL
T1 sequence (P22001 whole entry): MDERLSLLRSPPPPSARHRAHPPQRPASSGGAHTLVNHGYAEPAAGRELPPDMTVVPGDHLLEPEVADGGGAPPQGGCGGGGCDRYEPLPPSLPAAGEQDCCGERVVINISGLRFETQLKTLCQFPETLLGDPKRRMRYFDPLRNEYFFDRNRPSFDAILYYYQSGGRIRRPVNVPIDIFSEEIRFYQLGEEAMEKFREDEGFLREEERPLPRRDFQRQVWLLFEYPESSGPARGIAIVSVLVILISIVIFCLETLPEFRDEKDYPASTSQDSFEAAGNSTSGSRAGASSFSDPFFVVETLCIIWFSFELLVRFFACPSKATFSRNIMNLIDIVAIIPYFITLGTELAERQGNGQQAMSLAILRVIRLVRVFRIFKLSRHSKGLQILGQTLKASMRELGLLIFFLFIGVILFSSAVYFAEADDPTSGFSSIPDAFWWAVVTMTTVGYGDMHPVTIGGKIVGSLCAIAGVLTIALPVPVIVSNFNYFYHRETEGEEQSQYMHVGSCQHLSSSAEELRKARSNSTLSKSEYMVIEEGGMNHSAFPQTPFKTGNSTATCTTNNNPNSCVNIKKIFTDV

| inhibition at 1 µM (hKv1.5) [%] | inhibition at 1 µM (human Kv1.3) [%] | SMILES |
| --- | --- | --- |
| 56.3 | 93 | O=C(c1ccc(N(Cc2ccc(F)cc2)S(=O)(=O)c2ccccc2)cc1)N1CCN(c2ccccc2)CC1 [Example 12, N-(4-Fluoro-benzyl)-N-[4-(4-phenyl-piperazine-1-carbonyl)-phenyl]-benzenesulfonamide] |
| 50 | 76 | Cc1cc(C(=O)N2CCN(c3ccccc3)CC2)ccc1N(Cc1ccccc1)S(=O)(=O)c1cn(C)cn1 [Example 49, 1-Methyl-1H-imidazole-4-sulfonic acid benzyl-[2-methyl-4-(4-phenyl-piperazine-1-carbonyl)-phenyl]-amide] |
| 70.9 | 70 | O=C(c1ccc(N(Cc2ccccc2)S(=O)(=O)c2cccc(F)c2)cc1)N1CCN(c2ccccc2)CC1 [Example 21, N-Benzyl-3-fluoro-N-[4-(4-phenyl-piperazine-1-carbonyl)-phenyl]-benzenesulfonamide] |
| 40.8 | 76 | CN1CCN(C(=O)c2ccc(N(Cc3ccccc3)S(=O)(=O)c3ccn(C)n3)cc2)CC1c1ccccc1 (stereo not shown) [Example 90, 1-Methyl-1H-pyrazole-3-sulfonic acid benzyl-[4-(4-methyl-3-phenyl-piperazine-1-carbonyl)-phenyl]-amide] |
| 44.2 | 68 | COc1ccccc1CN(c1ccc(C(=O)N2CCN(c3ccccc3)CC2)cc1)S(=O)(=O)c1ccccc1 [Example 32, N-(2-Methoxy-benzyl)-N-[4-(4-phenyl-piperazine-1-carbonyl)-phenyl]-benzenesulfonamide] |
| 74.4 | 93 | Cn1cnc(S(=O)(=O)N(Cc2ccccc2)c2ccc(C(=O)N3CCOC(c4ccccc4)C3)cc2)c1 (stereo not shown) [Example 63, 1-Methyl-1H-imidazole-4-sulfonic acid benzyl-[4-(2-phenyl-morpholine-4-carbonyl)-phenyl]-amide] |
| 93.8 | 42 | O=C(c1ccc(N(Cc2ccccc2)S(=O)(=O)c2ccccc2)c(F)c1)N1CCN(c2ccccc2)CC1 [Example 53, N-Benzyl-N-[2-fluoro-4-(4-phenyl-piperazine-1-carbonyl)-phenyl]-benzenesulfonamide] |
| 66.4 | 76 | CCc1ccc(S(=O)(=O)N(Cc2ccccc2)c2ccc(C(=O)N3CCN(c4ccccc4)CC3)cc2)cc1 [Example 42, N-Benzyl-4-ethyl-N-[4-(4-phenyl-piperazine-1-carbonyl)-phenyl]-benzenesulfonamide] |
| 62.4 | 62 | O=C(c1ccc(N(Cc2ccccc2)S(=O)(=O)c2ccc([N+](=O)[O-])cc2)cc1)N1CCN(c2ccccc2)CC1 [Example 40, N-Benzyl-4-nitro-N-[4-(4-phenyl-piperazine-1-carbonyl)-phenyl]-benzenesulfonamide] |
| 49.3 | 79 | Cc1nc(C)c(S(=O)(=O)N(Cc2ccccc2)c2ccc(C(=O)N3CCN(c4ccccc4)CC3)cc2)s1 [Example 48, 2,4-Dimethyl-thiazole-5-sulfonic acid benzyl-[4-(4-phenyl-piperazine-1-carbonyl)-phenyl]-amide] |
| 81.2 | 74 | COc1cccc(S(=O)(=O)N(Cc2ccccc2)c2ccc(C(=O)N3CCN(c4ccccc4)CC3)cc2)c1 [Example 28, N-Benzyl-3-methoxy-N-[4-(4-phenyl-piperazine-1-carbonyl)-phenyl]-benzenesulfonamide] |
| 47.3 | 34 | O=C(c1ccc(N(Cc2ccccc2)S(=O)(=O)c2cccs2)cc1)N1CCN(c2ccccc2)CC1 [Example 17, Thiophene-2-sulfonic acid benzyl-[4-(4-phenyl-piperazine-1-carbonyl)-phenyl]-amide] |
| 45.2 | 47 | COc1ccc(C2CCCN(C(=O)c3ccc(N(Cc4ccc(Cl)cc4)S(=O)(=O)c4ccccc4)cc3)C2)cc1 (stereo not shown) [Example 57, N-(4-Chloro-benzyl)-N-{4-[3-(4-methoxy-phenyl)-piperidine-1-carbonyl]-phenyl}-benzenesulfonamide] |
| 64.5 | 99 | O=C(c1ccc(N(Cc2ccccc2)S(=O)(=O)c2ccccc2)cc1)N1CCN(c2ccccc2)CC1 [Example 9, N-Benzyl-N-[4-(4-phenyl-piperazine-1-carbonyl)-phenyl]-benzenesulfonamide] |
| 52.4 | 64 | Cn1cnc(S(=O)(=O)N(Cc2ccc(Cl)cc2)c2ccc(C(=O)N3CCCC(Oc4ccccc4)C3)cc2)c1 (stereo not shown) [Example 62, 1-Methyl-1H-imidazole-4-sulfonic acid (4-chloro-benzyl)-[4-(3-phenoxy-piperidine-1-carbonyl)-phenyl]-amide] |
| 58.8 | 68 | Cn1cnc(S(=O)(=O)N(Cc2ccccc2)c2ccc(C(=O)N3CCN(c4ccccc4)CC3)cc2)c1 [Example 25, 1-Methyl-1H-imidazole-4-sulfonic acid benzyl-[4-(4-phenyl-piperazine-1-carbonyl)-phenyl]-amide] |
| 68.9 | 56 | Cc1ccc(CN(c2ccc(C(=O)N3CCN(c4ccccc4)CC3)cc2)S(=O)(=O)c2ccccc2)cc1 [Example 35, N-(4-Methyl-benzyl)-N-[4-(4-phenyl-piperazine-1-carbonyl)-phenyl]-benzenesulfonamide] |
| 43.6 | 76 | Cn1cnc(S(=O)(=O)N(Cc2cccc(F)c2)c2ccc(C(=O)N3CCN(c4ccccc4)CC3)cc2)c1 [Example 44, 1-Methyl-1H-imidazole-4-sulfonic acid (3-fluoro-benzyl)-[4-(4-phenyl-piperazine-1-carbonyl)-phenyl]-amide] |
| 94 | 91 | O=C(c1ccc(N(Cc2ccc(Cl)cc2)S(=O)(=O)c2ccccc2)cc1)N1CCN(c2ccccc2)CC1 [Example 1, N-(4-Chloro-benzyl)-N-[4-(4-phenyl-piperazine-1-carbonyl)-phenyl]-benzenesulfonamide] |
| 54.6 | 83 | O=C(c1ccc(N(Cc2ccccc2)S(=O)(=O)c2ccc(F)cc2)cc1)N1CCN(c2ccccc2)CC1 [Example 19, N-Benzyl-4-fluoro-N-[4-(4-phenyl-piperazine-1-carbonyl)-phenyl]-benzenesulfonamide] |
| 40.1 | 87 | O=C(c1ccc(N(Cc2ccccc2)S(=O)(=O)c2ccccc2)cc1)N1CCC(O)(Cc2ccccc2)CC1 [Example 59, N-Benzyl-N-[4-(4-benzyl-4-hydroxy-piperidine-1-carbonyl)-phenyl]-benzenesulfonamide] |
| 69 | 55 | Cn1cnc(S(=O)(=O)N(Cc2ccc(F)cc2)c2ccc(C(=O)N3CCOC(c4ccccc4)C3)cc2)c1 (stereo not shown) [Example 66, 1-Methyl-1H-imidazole-4-sulfonic acid (4-fluoro-benzyl)-[4-(2-phenyl-morpholine-4-carbonyl)-phenyl]-amide] |
| 82.9 | 80 | O=C(c1ccc(N(Cc2ccccc2)S(=O)(=O)c2ccsc2)cc1)N1CCN(c2ccccc2)CC1 [Example 18, Thiophene-3-sulfonic acid benzyl-[4-(4-phenyl-piperazine-1-carbonyl)-phenyl]-amide] |
